Experimental data reported in PubChem BioAssay AID248 (DTP/NCI, 2004).
Values joined by “and” are separate entries in the source; they are usually repeats but may differ in a detail not shown here. Equal entries are not always repeated. Toxic doses and inconclusive results are not listed. Rule as the data show it: active = T/C of 150% or more; inactive = T/C below 125%.

Test system: L1210 leukemia ip in BDF1 mice, survival T/C
Test: NCI In Vivo Anticancer Drug Screen. Data for tumor model L1210 Leukemia (intraperitoneal) in B6D2F1 (BDF1) mice
Details: endpoint: mean survival time, higher = longer survival
In short: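 Antitumor effect is assessed in tumor-bearing animals. Survival in the compound arm is compared with a vehicle-dosed control arm and expressed as their quotient.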

[1] = dose: 100.0 mg/kg/injection, schedule: Q04DX003 (ip), vehicle: saline with Tween-80
[2] = dose: 200.0 mg/kg/injection, schedule: Q04DX003 (ip), vehicle: saline with Tween-80
[3] = dose: 400.0 mg/kg/injection, schedule: Q04DX003 (ip), vehicle: saline with Tween-80
[4] = dose: 50.0 mg/kg/injection, schedule: Q01DX001 (ip), vehicle: saline
[5] = dose: 100.0 mg/kg/injection, schedule: Q01DX001 (ip), vehicle: saline
[6] = dose: 200.0 mg/kg/injection, schedule: Q01DX001 (ip), vehicle: saline
[7] = dose: 50.0 mg/kg/injection, schedule: Q01DX009 (ip), vehicle: saline
[8] = dose: 100.0 mg/kg/injection, schedule: Q01DX009 (ip), vehicle: saline
[9] = dose: 100.0 mg/kg/injection, schedule: Q04DX003 (ip), vehicle: saline
[10] = dose: 200.0 mg/kg/injection, schedule: Q04DX003 (ip), vehicle: saline
[11] = dose: 50.0 mg/kg/injection, schedule: Q04DX003 (ip), vehicle: Klucel (hydroxypropylcellulose) (HPC)
[12] = dose: 100.0 mg/kg/injection, schedule: Q01DX009 (ip), vehicle: Klucel (hydroxypropylcellulose) (HPC)
[13] = dose: 100.0 mg/kg/injection, schedule: Q04DX003 (ip), vehicle: Klucel (hydroxypropylcellulose) (HPC)
[14] = dose: 200.0 mg/kg/injection, schedule: Q01DX009 (ip), vehicle: Klucel (hydroxypropylcellulose) (HPC)
[15] = dose: 100.0 mg/kg/injection, schedule: Q01DX001 (ip), vehicle: carboxymethylcellulose (CMC)
[16] = dose: 200.0 mg/kg/injection, schedule: Q01DX001 (ip), vehicle: carboxymethylcellulose (CMC)
[17] = dose: 400.0 mg/kg/injection, schedule: Q01DX001 (ip), vehicle: carboxymethylcellulose (CMC)
[18] = dose: 200.0 mg/kg/injection, schedule: Q04DX003 (ip), vehicle: Klucel (hydroxypropylcellulose) (HPC)
[19] = dose: 400.0 mg/kg/injection, schedule: Q04DX003 (ip), vehicle: Klucel (hydroxypropylcellulose) (HPC)
[20] = dose: 400.0 mg/kg/injection, schedule: Q01DX009 (ip), vehicle: Klucel (hydroxypropylcellulose) (HPC)
[21] = dose: 400.0 mg/kg/injection, schedule: Q04DX003 (ip), vehicle: saline

Measured: T/C

COc1ccc(OC)c(/C=C(C(=O)O)/C(=C/c2cc(OC)ccc2OC)C(=O)O)c1
inactive: [1] 105 % of control | [2] 102 % of control | [3] 97 % of control

c1ccc2c(c1)Cc1cc3ccccc3cc1-2
inactive: dose: 50.0 mg/kg/injection, schedule: Q01DX001 (ip), vehicle: gum acacia 94 % of control | dose: 100.0 mg/kg/injection, schedule: Q01DX001 (ip), vehicle: gum acacia 95 % of control | dose: 200.0 mg/kg/injection, schedule: Q01DX001 (ip), vehicle: gum acacia 94 % of control

Sc1cccc2cccnc12.[Ni]
inactive: [4] 111 % of control | [5] 98 % of control | [6] 98 % of control | dose: 400.0 mg/kg/injection, schedule: Q01DX001 (ip), vehicle: saline 98 % of control

Oc1cc2ccccc2cc1O
inactive: dose: 100.0 mg/kg/injection, schedule: Q04DX002 (ip), vehicle: saline with Tween-80 104 % of control | dose: 200.0 mg/kg/injection, schedule: Q04DX002 (ip), vehicle: saline with Tween-80 97 % of control | dose: 400.0 mg/kg/injection, schedule: Q04DX002 (ip), vehicle: saline with Tween-80 93 % of control

NC(Cc1ccccc1)C(=O)NCCCCCCCCCCNC(=O)C(N)Cc1ccccc1 (stereo not given)
inactive: [4] 98 % of control | [5] 104 % of control | [6] 103 % of control

CC1NC1(c1ccccc1)[n+]1ccccc1 (stereo not given)
inactive: [7] 97 % of control | [8] 95 % of control | [9] 105 % of control | [10] 105 % of control

CC(c1ccccc1)n1ccnc1CO (stereo not given)
inactive: dose: 50.0 mg/kg/injection, schedule: Q01DX009 (ip), vehicle: Klucel (hydroxypropylcellulose) (HPC) 103 % of control and 112 % of control | [11] 98 % of control | [12] 102 % of control and 115 % of control | [13] 106 % of control | [14] 98 % of control

Cc1c(C2CCC(=O)C2)c2ccccc2n1C (stereo not given)
inactive: [15] 93 % of control | [16] 89 % of control | [17] 88 % of control

Cc1ccc(S(=O)(=O)N(c2ccc(I)cc2F)S(=O)(=O)c2ccc(C)cc2)cc1
inactive: [13] 98 % of control | [18] 97 % of control | [19] 108 % of control

Cc1ccc(Cl)cc1NC(=O)COc1ccc(Cl)cc1
inactive: [12] 88 % of control | [13] 98 % of control | [14] 94 % of control | [18] 88 % of control | [20] 91 % of control | [19] 103 % of control

CN(C)CCNC(=O)N(C)C
inactive: [8] 95 % of control | [9] 92 % of control | dose: 200.0 mg/kg/injection, schedule: Q01DX009 (ip), vehicle: saline 98 % of control | [10] 100 % of control | dose: 400.0 mg/kg/injection, schedule: Q01DX009 (ip), vehicle: saline 102 % of control | [21] 97 % of control

O=P(Cc1ccccc1)(OCCCl)Oc1ccccc1 (stereo not given)
inactive: [12] 102 % of control | [13] 91 % of control | [14] 98 % of control | [18] 96 % of control | [20] 96 % of control | [19] 96 % of control

CCOC(=O)CCN(CC)CC
inactive: [9] 97 % of control | [10] 94 % of control | [21] 108 % of control

CCCCCCCCCCCCO[P+](=O)OCCCCCCCCCCCC
inactive: dose: 100.0 mg/kg/injection, schedule: Q01DX009 (ip), vehicle: saline sonified 93 % of control | [9] 95 % of control | dose: 200.0 mg/kg/injection, schedule: Q01DX009 (ip), vehicle: saline sonified 93 % of control | [10] 100 % of control | dose: 222.0 mg/kg/injection, schedule: Q01DX Z (ip), vehicle: methylcellulose (MC) 96 % of control | dose: 333.0 mg/kg/injection, schedule: Q01DX Z (ip), vehicle: methylcellulose (MC) 95 % of control | [21] 90 % of control

C=C1C(=O)OC2CC(C)C3CC(=O)C(C)=C3C(O)C12 (stereo not given)
inactive: dose: 25.0 mg/kg/injection, schedule: Q01DX009 (ip), vehicle: saline 94 % of control | [7] 98 % of control

CCOC(=O)CNc1cccc(I)c1
inactive: dose: 100.0 mg/kg/injection, schedule: Q04DX002 (ip), vehicle: Klucel (hydroxypropylcellulose) (HPC) 110 % of control | dose: 200.0 mg/kg/injection, schedule: Q04DX002 (ip), vehicle: Klucel (hydroxypropylcellulose) (HPC) 100 % of control | dose: 400.0 mg/kg/injection, schedule: Q04DX002 (ip), vehicle: Klucel (hydroxypropylcellulose) (HPC) 104 % of control

C=CC(=O)Nc1ccc(Cl)cc1
inactive: dose: 25.0 mg/kg/injection, schedule: Q04DX003 (ip), vehicle: Klucel (hydroxypropylcellulose) (HPC) 98 % of control | [11] 96 % of control | [13] 107 % of control and 90 % of control

NC(=O)c1cc([N+](=O)[O-])ccc1N
inactive: dose: 100.0 mg/kg/injection, schedule: Q01DX001 (ip), vehicle: other 103 % of control | dose: 100.0 mg/kg/injection, schedule: Q04DX003 (ip), vehicle: saline sonified 103 % of control | dose: 200.0 mg/kg/injection, schedule: Q01DX001 (ip), vehicle: other 112 % of control | dose: 200.0 mg/kg/injection, schedule: Q04DX003 (ip), vehicle: saline sonified 105 % of control | dose: 400.0 mg/kg/injection, schedule: Q01DX001 (ip), vehicle: other 95 % of control | dose: 400.0 mg/kg/injection, schedule: Q04DX003 (ip), vehicle: saline sonified 111 % of control

Cc1ccc(NC(=O)Nc2cccc(F)c2)cc1C
inactive: [12] 94 % of control | [14] 97 % of control | [20] 95 % of control

O=C(Nc1cc([N+](=O)[O-])ccc1O)Nc1cc(C(F)(F)F)ccc1Cl
inactive: [15] 90 % of control | dose: 100.0 mg/kg/injection, schedule: Q01DX009 (ip), vehicle: carboxymethylcellulose (CMC) 95 % of control and 103 % of control | dose: 100.0 mg/kg/injection, schedule: Q04DX002 (ip), vehicle: carboxymethylcellulose (CMC) 97 % of control and 101 % of control | dose: 100.0 mg/kg/injection, schedule: Q04DX003 (ip), vehicle: carboxymethylcellulose (CMC) 94 % of control | [16] 93 % of control | dose: 200.0 mg/kg/injection, schedule: Q01DX009 (ip), vehicle: carboxymethylcellulose (CMC) 93 % of control and 95 % of control | dose: 200.0 mg/kg/injection, schedule: Q04DX002 (ip), vehicle: carboxymethylcellulose (CMC) 93 % of control and 97 % of control | dose: 200.0 mg/kg/injection, schedule: Q04DX003 (ip), vehicle: carboxymethylcellulose (CMC) 92 % of control | [17] 92 % of control | dose: 400.0 mg/kg/injection, schedule: Q01DX009 (ip), vehicle: carboxymethylcellulose (CMC) 92 % of control and 93 % of control | dose: 400.0 mg/kg/injection, schedule: Q04DX002 (ip), vehicle: carboxymethylcellulose (CMC) 92 % of control and 90 % of control | dose: 400.0 mg/kg/injection, schedule: Q04DX003 (ip), vehicle: carboxymethylcellulose (CMC) 97 % of control

CN(C)Cc1cc(O)c(CN(C)C)cc1O
inactive: dose: 25.0 mg/kg/injection, schedule: Q01DX009 (ip), vehicle: saline with Tween-80 110 % of control | dose: 25.0 mg/kg/injection, schedule: Q04DX003 (ip), vehicle: saline with Tween-80 88 % of control | dose: 50.0 mg/kg/injection, schedule: Q01DX009 (ip), vehicle: saline with Tween-80 103 % of control | dose: 50.0 mg/kg/injection, schedule: Q04DX003 (ip), vehicle: saline with Tween-80 93 % of control | [1] 96 % of control

CNc1ccc(/C=N/CCl)cc1
inactive: [1] 92 % of control | [2] 91 % of control | [3] 96 % of control

O=C(Nc1ccccc1)Nc1cccc(C(F)(F)F)c1
inactive: dose: 50.0 mg/kg/injection, schedule: Q01DX001 (ip), vehicle: carboxymethylcellulose (CMC) 104 % of control | [15] 102 % of control | [16] 107 % of control | [17] 109 % of control
